In experiment [1] the test system is C. albicans (ATCC 10231 and DF2672R). It counts as cell-based. The settings on record: for time to 4 log reduction (99.99%) in viable cells: ATCC strain. The method, then: The time-kill kinetics was measured for two strains of C. albicans (ATCC 10231 and DF2672R). The cultures were grown overnight in SD broth and the cell concentration was adjusted to 10^5-10^6 CFU/ml with phosphate buffer. The peptide or antifungals were added to the individual cultures. […] The test solution was incubated at 37° C. with constant shaking. 100 μL of the suspension is withdrawn at predetermined time points, serially diluted (10^2 or 10^3 fold) and poured into the SDA plate. The plate was incubated for 48 h at 37° C. for colony counting. The data were expressed in terms of % cell viability relative to the positive control.

The subject of a further experiment is C. albicans ATCC10231. The experiment can be described thus: MIC in the presence of monovalent and divalent metal ions. It counts as cell-based. The protocol: For studying the effects of metal ions, SD broth was adjusted with appropriate concentrations of salts to yield a final concentration of 100 and 135 mM for NaCl and KCl and 0.5-2 mM for CaCl2 and MgCl2. MIC determinations were carried out as described above. C. albicans ATCC10231 cells and salts in broth were taken as a positive control. Salts alone (NaCl, KCl, and CaCl2 and MgCl2) in broth or with 22 μM peptide served as a negative control.

Another experiment concerns C. albicans ATCC 10231. The experiment can be described thus: Antifungal activity after incubation with trypsin. It counts as cell-based. The settings on record: trypsin:peptide 1:100, 37° C., up to 6 h. The method, then:
For all the experiments, unless otherwise stated, ATCC 10231 strain was used. B4010 (1 mg/ml) was incubated with trypsin (enzyme:peptide ratio 1:100) at 37° C. 20 μL aliquot of this mixture was withdrawn at various time intervals (0.5, 1, 2, 4 and 6 h) and mixed with 1 μL of trypsin inhibitor. The antifungal activity of the peptide was determined by adding this mixture to 180 μl of inoculum and monitoring the growth at OD600 for 24 h. Similar experiments performed in the presence of trypsin/trypsin inhibitor (without B4010) were used as a positive control. For assessing the antifungal activity in tear fluid (TF), the peptide was dissolved in freshly collected rabbit TF and incubated at 37° C. for 6 h. After incubation, an equal volume of an overnight culture of C. albicans (˜10^6 CFU/ml) was mixed with peptides in tear fluid and incubated at 37° C. for 24 h. The final concentrations of the peptide were at 4.4, 8.8 and 22 μM. A 100 μL aliquot of serial dilutions (10^2 or 10^3 times) of this mixture were inoculated on a SD agar plate and then incubated for 48 h at 37° C. Culture alone and culture with 50% tear fluid served as the positive control. […]
The peptide B4010 was incubated with trypsin (trypsin:peptide ratio=1:100) at 37° C. An aliquot of this mixture was withdrawn at various time intervals, added to the C. albicans inoculum and the growth was monitored (FIG. 3C).

For experiment [2], the system named is C. albicans 2672R and C. albicans 1976R. The class given is cell-based. Conditions: two clinical isolates. The protocol:
The effect of 5% human serum on the activities of B4010 against two C. albicans clinical isolates was determined. The human male serum was centrifuged at 13,000 rpm for 10 mins in order to remove the lipids and the supernatant was collected. The MIC values against clinical isolates of C. albicans 2672R and C. albicans 1976R were determined both in standard medium (SD broth) as well as in standard medium containing 5% serum supernatant as before.

A short description of experiment [3]: Calcein release from mammalian model membrane SUVs. Conditions: PC:Cholesterol, compared with fungal model membrane. The protocol:
Small unilamellar vesicles (SUVs) were prepared using PC/PE/PI or PS lipids (5:2.5:2.5) containing 15 wt % ergosterol or PC/Cholesterol (10:1) (Makovitzki et al., 2006). For the preparation of PC/PE/PI or PS/Erg SUV, the lipids were dissolved in chloroform/methanol (2:1, v/v) in a glass tube. Ergosterol was dissolved in same solvent and added to lipid mixture to make final ergosterol content of 15 wt %. The Lipid-ergosterol mixture was dried using nitrogen gas to form lipid layer. The film was hydrated in a buffer containing 20 mM PBS (pH 7), vortexed and sonicated. Each cycle of sonication (5 sec, 40° C.) is followed by freezing in liquid nitrogen and thawing on a water bath kept at 37° C. The procedure was repeated 5-6 times until an optically clear dispersion appeared. The SUV was divided into two parts. To the first part 50 mM calcein was added and incubated for 1 h. […] Changes in the fluorescence signal after addition of peptide or Triton X-100 was measured on a PTI spectrofluorometer, using an excitation wavelength of 480 nm and emission wavelength of 512 nm. The Percentage calcein released at each time point was calculated using the equation: […]
Where A0 is the observed fluorescence intensity upon addition of peptides, Amin is the average intensity at the baseline (before peptide addition), Amax is the average intensity at the saturation phase after adding 1% Triton X-100. […]

The subject of the next experiment is C. albicans. The experiment can be described thus: Cell viability assay under diS-C3-5 assay conditions. The class given is cell-based. The settings on record: concentration exceeding 4×MIC. The method, then: To verify if the dissipation of membrane potential is linked to candidacidal activity, a cell viability assay was performed under identical conditions.

Molecules are shown by their SMILES. In brackets after ≈: the same amount, converted by molar mass. Read-outs that look alike come from different tables or passages of the source. Where a SMILES comes first, the peptide text is derived from it. Bridges are numbered along the chain shown (N, C = ends). Roman numbers before positions name the chains, in order.

What is called MIC is the least concentration at which growth counts as inhibited.

As for `CC(C)[C@H](NC(=O)[C@H](CCCCN)NC(=O)[C@H](CCCNC(=N)N)NC(=O)CNC(=O)[C@@H](N)CCCNC(=N)N)C(=O)N[C@H](C(=O)N[C@@H](CCCNC(=N)N)C(=O)N[C@@H](CCCNC(=N)N)C(=O)NCCCC[C@H](NC(=O)[C@H](CCCNC(=N)N)NC(=O)[C@H](CCCNC(=N)N)NC(=O)[C@@H](NC(=O)[C@@H](NC(=O)[C@H](CCCCN)NC(=O)[C@H](CCCNC(=N)N)NC(=O)CNC(=O)[C@@H](N)CCCNC(=N)N)C(C)C)C(C)C)C(=O)NCCCC[C@H](NC(=O)[C@H](CCCCNC(=O)[C@H](CCCNC(=N)N)NC(=O)[C@H](CCCNC(=N)N)NC(=O)[C@@H](NC(=O)[C@@H](NC(=O)[C@H](CCCCN)NC(=O)[C@H](CCCNC(=N)N)NC(=O)CNC(=O)[C@@H](N)CCCNC(=N)N)C(C)C)C(C)C)NC(=O)[C@H](CCCNC(=N)N)NC(=O)[C@H](CCCNC(=N)N)NC(=O)[C@@H](NC(=O)[C@@H](NC(=O)[C@H](CCCCN)NC(=O)[C@H](CCCNC(=N)N)NC(=O)CNC(=O)[C@@H](N)CCCNC(=N)N)C(C)C)C(C)C)C(=O)N[C@@H](CCCCN)C(=O)O)C(C)C` [Peptide B4010] (I: H-RGRKVVRRKKK-OH / II: H-RGRKVVRRK / III: H-RGRKVVRR / IV: H-RGRKVVRR; amide I:9-IV:C, I:10-II:C, II:9-III:C; N-terminus and C-terminus assumed), the “time to complete killing” value in experiment [1] (4×MIC) worked out at 30 min; in experiment [1] (C. albicans DF2672R, 2×MIC), 60 min. The killing is listed as about 91% in experiment [1] (ATCC 10231, 1 h, 1) and about 97% in experiment [1] (ATCC 10231, 48 h, 2). Moreover, the “time to 3 log reductions of viable cells” value in experiment [1] (ATCC and clinical isolates, 2× or 4×MIC) is recorded as “less than 1 h”. The “time to 4 log reduction (99.99%) in viable cells” value in experiment [1] (4×MIC) was at most 20 minutes; in experiment [1] (8×MIC), at most 10 minutes. Further, the “increase in MIC” value in the experiment on C. albicans ATCC10231 (25 mM KCl) was 8 fold; in the experiment with C. albicans ATCC10231 (physiological concentrations of divalent cations), 2 fold. Moreover, the “increase in MIC compared to medium without KCl” value in the experiment on C. albicans ATCC10231 (100 mM KCl) was over 16 fold. In addition, in the experiment on C. albicans ATCC10231 (135 mM NaCl), the “decrease in MIC” value came to 2 fold. Moreover, the “change in MIC” value in the experiment on C. albicans ATCC10231 (high concentration of Ca2+ and Mg2+ ions) is “two fold increase”. Besides, in the experiment on C. albicans ATCC 10231, the “antifungal activity after trypsin incubation” value is on record as “No loss of antifungal activity”. Also, the MIC was found to be 5.5 µM (≈ 25.1 µg/mL) in experiment [2] (5% human serum) and 0.34 µM (≈ 1.55 µg/mL) in experiment [2] (without serum). Moreover, the calcein leakage entry in experiment [3] is reported as “less calcein leakage”. The cell viability result in the experiment with C. albicans is “complete loss of viability”.

Source of the values: patent US20150225454A1, “TETRABRANCHED PEPTIDES AND ANALOGUES AS A NEW CLASS OF ANTIMICROBIALS AND THEIR PREPARATION THEREOF” (priority 2012, published 2015).
